One molecule from ChEMBL document CHEMBL5726207, “Substituted N,2-diarylquinoline-4-carboxamides and the use thereof as anti-inflammatory agents” (2019) can be followed below.

Structures are written as SMILES. Values joined by “and” are separate entries in the source; they are usually repeats but may differ in a detail not shown here. Equal entries are not always repeated.

The assay addresses Prostaglandin F2-alpha receptor (Homo sapiens, UniProt P43088). In words: 470 nm/em. 525 nm in a fluorescence measuring instrument (FLIPR Tetra, MolecularDevices) for 120 seconds. It counts as cell-based.

Prostaglandin F2-alpha receptor, sequence (P43088 whole entry): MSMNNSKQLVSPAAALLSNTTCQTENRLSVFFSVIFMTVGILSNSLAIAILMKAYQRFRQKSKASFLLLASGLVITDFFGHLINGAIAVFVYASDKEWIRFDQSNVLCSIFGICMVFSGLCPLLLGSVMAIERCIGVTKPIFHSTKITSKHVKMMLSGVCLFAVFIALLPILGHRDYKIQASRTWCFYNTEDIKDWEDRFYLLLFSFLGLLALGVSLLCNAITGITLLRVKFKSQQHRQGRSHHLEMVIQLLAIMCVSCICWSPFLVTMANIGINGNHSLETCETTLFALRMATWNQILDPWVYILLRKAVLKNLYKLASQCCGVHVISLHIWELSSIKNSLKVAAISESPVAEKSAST

One may read the IC50 as the point on the concentration scale where inhibition reaches its midpoint. As for `Cc1c(-c2ccccc2)nc2ccc(Br)cc2c1C(=O)Nc1ccc(C(=O)O)cc1F`, the IC50 was 53 nM and 47 nM.
